Data: ChEMBL document CHEMBL1141751, “Latifolians A and B, novel JNK3 kinase inhibitors from the Papua New Guinean plant Gnetum latifolium” (J Nat Prod, 2005)

Biological target: Mitogen-activated protein kinase 10 (Homo sapiens, UniProt P53779)
Experiment: Inhibition of JNK3-induced transfer of [gamma33P]ATP to biotinylated ATF2 by scintillation proximity assay

Mitogen-activated protein kinase 10, sequence (P53779 whole entry): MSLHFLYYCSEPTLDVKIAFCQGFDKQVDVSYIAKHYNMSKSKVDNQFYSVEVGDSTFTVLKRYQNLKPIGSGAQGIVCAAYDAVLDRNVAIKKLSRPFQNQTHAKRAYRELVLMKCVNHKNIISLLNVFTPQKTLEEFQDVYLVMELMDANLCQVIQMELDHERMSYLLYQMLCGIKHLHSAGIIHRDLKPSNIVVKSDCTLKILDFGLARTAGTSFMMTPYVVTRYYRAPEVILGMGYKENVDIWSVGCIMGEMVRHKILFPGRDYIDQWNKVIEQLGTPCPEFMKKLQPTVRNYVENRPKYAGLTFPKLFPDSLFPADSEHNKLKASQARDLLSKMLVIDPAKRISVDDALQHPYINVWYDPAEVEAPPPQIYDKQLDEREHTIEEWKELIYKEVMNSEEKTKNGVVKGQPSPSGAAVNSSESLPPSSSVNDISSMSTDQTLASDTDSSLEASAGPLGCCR

SMILES | IC50 [µM]
COc1cc2c(cc1O)C[C@@H]1c3cc(O)c(O)cc3C[C@H]3c4cc(O)c(O)cc4CC[N@@+]213 [LATIFOLIAN B] | 10
Oc1cc2c(cc1O)[C@H]1Cc3cc(O)c(O)cc3[N@+]13CCc1cc(O)c(O)cc1[C@@H]3C2 [LATIFOLIAN A] | 13
